For test [1], the system named is Enterococcus faecium. As to the kind of experiment: Antimicrobial activity against Vancomycin-resistant (Van A) Enterococcus faecium ATCC 51559 assessed as reduction in microbial growth. Type of test: functional.
Test [2] has as its system Enterococcus faecium. As to the kind of experiment: Antimicrobial activity against Vancomycin-resistant Enterococcus faecium assessed as reduction in microbial growth. Type of test: functional.
Test [3] deals with Enterococcus faecalis. Put plainly: Antimicrobial activity against Vancomycin - resistant Enterococcus faecalis assessed as inhibition of bacterial growth. Format: functional.
For test [4], the system named is Staphylococcus aureus. As to the kind of experiment: Antibacterial activity against Vancomycin-intermediate Staphylococcus aureus NRS1 assessed as bacterial growth inhibition. Type of test: functional.
Test [5] has as its system Staphylococcus aureus. Put plainly: Antimicrobial activity against Vancomycin-resistant Staphylococcus aureus incubated for 20 hrs by broth dilution method. Format: functional.
Test [6] concerns Staphylococcus aureus. Put plainly: Antibacterial activity against Vancomycin-intermediate Staphylococcus aureus 3797 assessed as inhibition in bacterial growth. Type of test: functional.
A short description of test [7]: Binding affinity to D-Ala-D-Lac.
Test [8] in a line: Binding affinity to D-Ala-D-Ala.
The mark [9] stands for this setting: Enterococcus faecium, ATCC 51559, read-out: MIC.

≈ marks a conversion by molar mass, not a printed value.

On to `CN[C@H](CC(C)C)C(=O)N[C@H]1C(=O)N[C@@H](CC(N)=O)C(=O)N[C@H]2C(=O)N[C@H]3C(=O)N[C@H](C(=O)N[C@H](C(=O)NCCC[N+](C)(C)C)c4cc(O)cc(O)c4-c4cc3ccc4O)[C@H](O)c3ccc(c(Cl)c3)Oc3cc2cc(c3O[C@@H]2O[C@H](CO)[C@@H](O)[C@H](O)[C@H]2O[C@H]2C[C@](C)(NCc3ccc(-c4ccc(Cl)cc4)cc3)[C@H](O)[C@H](C)O2)Oc2ccc(cc2Cl)[C@H]1O`, for which the MIC in test [1] (setting [9]) and in test [2] was 0.01 µg/mL each time.
As to `C=C1NC(=O)[C@H]([C@@H](C)CC)NC(=O)[C@@H](NC(=O)/C(=C/C)NC(=O)[C@@H](N)[C@@H](C)CC)CSC[C@@H](C(=O)N[C@H]2C(=O)N3CCC[C@H]3C(=O)NCC(=O)N[C@H](C(=O)N[C@@H](CCCCN)C(=O)NCCCn3cc(CCC(=O)NCCCOCCOCCOCCCNC(=O)[C@H]4NC(=O)[C@H]5NC(=O)[C@H](NC(=O)[C@@H]6NC(=O)[C@H](CC(N)=O)NC(=O)[C@H](NC(=O)[C@@H](CC(C)C)NC)[C@H](O)c7ccc(c(Cl)c7)Oc7cc6cc(c7O[C@@H]6O[C@H](CO)[C@@H](O)[C@H](O)[C@H]6O[C@H]6C[C@](C)(N)[C@H](O)[C@H](C)O6)Oc6ccc(cc6Cl)[C@H]5O)c5ccc(O)c(c5)-c5c(O)cc(O)cc54)nn3)CS[C@@H]2C)NC(=O)[C@H]([C@@H](C)CC)NC1=O`, the minimal inhibitory concentration (MIC) in test [3] was 2.3 µM.
Turning to `CN[C@H](CC(C)C)C(=O)N[C@H]1C(=O)N[C@@H](CC(N)=O)C(=O)N[C@H]2C(=O)N[C@H]3C(=O)N[C@H](C(=O)N[C@H](C(=O)O)c4cc(O)cc(O)c4-c4cc3ccc4O)[C@H](O)c3ccc(c(Cl)c3)Oc3cc2cc(c3O[C@@H]2O[C@H](CO)[C@@H](O)[C@H](O)[C@H]2O[C@H]2C[C@](C)(NCc3cccc(OCCSSCCOc4cccc(CN[C@@]5(C)C[C@H](O[C@H]6[C@H](Oc7c8cc9cc7Oc7ccc(cc7Cl)[C@@H](O)[C@@H](NC(=O)[C@@H](CC(C)C)NC)C(=O)N[C@@H](CC(N)=O)C(=O)N[C@H]9C(=O)N[C@H]7C(=O)N[C@H](C(=O)N[C@H](C(=O)O)c9cc(O)cc(O)c9-c9cc7ccc9O)[C@H](O)c7ccc(c(Cl)c7)O8)O[C@H](CO)[C@@H](O)[C@@H]6O)O[C@@H](C)[C@H]5O)c4)c3)[C@H](O)[C@H](C)O2)Oc2ccc(cc2Cl)[C@H]1O`, the MIC turned out to be 8 µg/mL (≈ 2.48 µM) in test [4] and 1 µg/mL in test [2] (Enterococcus faecium, read-out: MIC).
With `CN[C@H](CC(C)C)C(=O)N[C@H]1C(=O)N[C@@H](CC(N)=O)C(=O)N[C@H]2C(=O)N[C@H]3C(=O)N[C@H](C(=O)N[C@H](C(=O)O)c4cc(O)cc(O)c4-c4cc3ccc4O)[C@H](O)c3ccc(c(Cl)c3)Oc3cc2cc(c3O[C@@H]2O[C@H](CO)[C@@H](O)[C@H](O)[C@H]2O[C@H]2C[C@](C)(NCc3cccc(OCC/C=C\CCOc4cccc(CN[C@@]5(C)C[C@H](O[C@H]6[C@H](Oc7c8cc9cc7Oc7ccc(cc7Cl)[C@@H](O)[C@@H](NC(=O)[C@@H](CC(C)C)NC)C(=O)N[C@@H](CC(N)=O)C(=O)N[C@H]9C(=O)N[C@H]7C(=O)N[C@H](C(=O)N[C@H](C(=O)O)c9cc(O)cc(O)c9-c9cc7ccc9O)[C@H](O)c7ccc(c(Cl)c7)O8)O[C@H](CO)[C@@H](O)[C@@H]6O)O[C@@H](C)[C@H]5O)c4)c3)[C@H](O)[C@H](C)O2)Oc2ccc(cc2Cl)[C@H]1O`, in test [4], the MIC is 1 µg/mL (≈ 0.313 µM).
Take `CN[C@@H](CC(C)C)C(=O)N[C@@H]1C(=O)N[C@H](CC(N)=O)C(=O)N[C@@H]2C(=O)N[C@@H]3C(=O)N[C@@H](C(=O)N[C@@H](C(=O)NCCCSSCCCNC(=O)[C@H]4NC(=O)[C@H]5NC(=O)[C@H](NC(=O)[C@@H]6NC(=O)[C@H](CC(N)=O)NC(=O)[C@H](NC(=O)[C@@H](CC(C)C)NC)[C@H](O)c7ccc(c(Cl)c7)Oc7cc6cc(c7O[C@@H]6O[C@H](CO)[C@@H](O)[C@H](O)[C@H]6O[C@H]6C[C@](C)(N)[C@H](O)[C@H](C)O6)Oc6ccc(cc6Cl)[C@H]5O)c5ccc(O)c(c5)-c5c(O)cc(O)cc54)c4cc(O)cc(O)c4-c4cc3ccc4O)[C@@H](O)c3ccc(c(Cl)c3)Oc3cc2cc(c3O[C@@H]2O[C@H](CO)[C@@H](O)[C@H](O)[C@H]2O[C@H]2C[C@](C)(N)[C@H](O)[C@H](C)O2)Oc2ccc(cc2Cl)[C@@H]1O`: in test [5], the MIC is 15 µM.
For `CN[C@H](CC(C)C)C(=O)N[C@H]1C(=O)N[C@@H](CC(N)=O)C(=O)N[C@H]2C(=O)N[C@H]3C(=O)N[C@H](C(=O)N[C@H](C(=O)NC[C@H]4OB(O)c5ccccc54)c4cc(O)cc(O)c4-c4cc3ccc4O)[C@H](O)c3ccc(c(Cl)c3)Oc3cc2cc(c3O[C@@H]2O[C@H](CO)[C@@H](O)[C@H](O)[C@H]2O[C@H]2C[C@](C)(N)[C@H](O)[C@H](C)O2)Oc2ccc(cc2Cl)[C@H]1O`, the MIC in test [6] worked out at 1 µM (≈ 1.59 µg/mL).
Consider `CCCCCCCCCCN[C@@]1(C)C[C@H](O[C@H]2[C@H](Oc3c4cc5cc3Oc3ccc(cc3Cl)[C@@H](O)[C@@H](NC(=O)[C@@H](CC(C)C)NC)C(=O)N[C@@H](CC(N)=O)C(=O)N[C@H]5C(=O)N[C@H]3C(=O)N[C@H](C(=O)N[C@H](C(=O)ONCCCNC(=O)[C@H](O)[C@@H](O)[C@H](O[C@@H]5O[C@H](CO)[C@H](O)[C@H](O)[C@H]5O)[C@H](O)CO)c5cc(O)cc(O)c5-c5cc3ccc5O)[C@H](O)c3ccc(c(Cl)c3)O4)O[C@H](CO)[C@@H](O)[C@@H]2O)O[C@@H](C)[C@H]1O`, for which the minimum inhibitory concentration (MIC) in test [3] came out at 0.7 µM; in test [1], 1 µM; in test [1] (setting [9]) it was 0.7 µM. The Ka in test [7] is 6 10^4/M.
For `CN[C@H](CC(C)C)C(=O)N[C@H]1C(=O)N[C@@H](CC(N)=O)C(=O)N[C@H]2C(=N)N[C@H]3C(=O)N[C@H](C(=O)N[C@H](C(=O)O)c4cc(O)cc(O)c4-c4cc3ccc4O)[C@H](O)c3ccc(c(Cl)c3)Oc3cc2cc(c3O[C@@H]2O[C@H](CO)[C@@H](O)[C@H](O)[C@H]2O[C@H]2C[C@](C)(NCc3ccc(-c4ccc(Cl)cc4)cc3)[C@H](O)[C@H](C)O2)Oc2ccc(cc2Cl)[C@H]1O`, the MIC in test [3] was 0.005 µg/mL; in test [1], 0.06 µg/mL; in test [1] (setting [9]), 0.005 µg/mL.
In the case of `CN[C@H](CC(C)C)C(=O)N[C@H]1C(=O)N[C@@H](CC(N)=O)C(=O)N[C@H]2C(=S)N[C@H]3C(=O)N[C@H](C(=O)N[C@H](C(=O)O)c4cc(O)cc(O)c4-c4cc3ccc4O)[C@H](O)c3ccc(c(Cl)c3)Oc3cc2cc(c3O)Oc2ccc(cc2Cl)[C@H]1O`, the Ka in test [8] was 1.7 10^2/M; in test [7], 1.1 10^1/M.
Consider `CN[C@H](CC(C)C)C(=O)N[C@H]1C(=O)N[C@@H](CC(N)=O)C(=O)N[C@H]2C(=N)N[C@H]3C(=O)N[C@H](C(=O)N[C@H](C(=O)O)c4cc(O)cc(O)c4-c4cc3ccc4O)[C@H](O)c3ccc(c(Cl)c3)Oc3cc2cc(c3O[C@@H]2O[C@H](CO)[C@@H](O)[C@H](O)[C@H]2O[C@H]2C[C@](C)(N)[C@H](O)[C@H](C)O2)Oc2ccc(cc2Cl)[C@H]1O`, for which the MIC in test [3] and in test [1] (setting [9]) was 0.5 µg/mL in each case.
For `CCCCCCCCCCCCCC(=O)N[C@@H](CCCCN)C(=O)N[C@@H](CCCCN)C(=O)N[C@@H](CCCCN)C(=O)NC(CCCCNC(=O)[C@H]1NC(=O)[C@H]2NC(=O)[C@H](NC(=O)[C@@H]3NC(=O)[C@H](CC(N)=O)NC(=O)[C@H](NC(=O)[C@@H](CC(C)C)NC)[C@H](O)c4ccc(c(Cl)c4)Oc4cc3cc(c4O[C@@H]3O[C@H](CO)[C@@H](O)[C@H](O)[C@H]3O[C@H]3C[C@](C)(N)[C@H](O)[C@H](C)O3)Oc3ccc(cc3Cl)[C@H]2O)c2ccc(O)c(c2)-c2c(O)cc(O)cc21)C(=O)O` (some centres not stated), the minimal inhibitory concentration (MIC) in test [4] was found to be 0.03 µg/mL (≈ 0.0138 µM); in test [1], 0.125 µg/mL; in test [5], 0.05 µg/mL.
Turning to `CN[C@H](CC(C)C)C(=O)N[C@H]1C(=O)N[C@@H](CC(N)=O)C(=O)N[C@H]2C(=N)N[C@H]3C(=O)N[C@H](C(=O)N[C@H](C(=O)O)c4cc(O)cc(O)c4-c4cc3ccc4O)[C@H](O)c3ccc(c(Cl)c3)Oc3cc2cc(c3O)Oc2ccc(cc2Cl)[C@H]1O`, the Ka was 7.3 10^4/M in test [8] and 6.9 10^4/M in test [7].
Turning to `CN[C@H](CC(C)C)C(=O)N[C@H]1C(=O)N[C@@H](CC(N)=O)C(=O)N[C@H]2C(=S)N[C@H]3C(=O)N[C@H](C(=O)N[C@H](C(=O)O)c4cc(O)cc(O)c4-c4cc3ccc4O)[C@H](O)c3ccc(c(Cl)c3)Oc3cc2cc(c3O[C@@H]2O[C@H](CO)[C@@H](O)[C@H](O)[C@H]2O[C@H]2C[C@](C)(NCc3ccc(-c4ccc(Cl)cc4)cc3)[C@H](O)[C@H](C)O2)Oc2ccc(cc2Cl)[C@H]1O`, the minimum inhibitory concentration (MIC) turned out to be 2 µg/mL in test [3], 2 µg/mL in test [1] and 4 µg/mL in test [1] (setting [9]).
Regarding `CN[C@H](CC(C)C)C(=O)N[C@H]1C(=O)N[C@@H](CC(N)=O)C(=O)N[C@H]2CN[C@H]3C(=O)N[C@H](C(=O)N[C@H](C(=O)O)c4cc(O)cc(O)c4-c4cc3ccc4O)[C@H](O)c3ccc(c(Cl)c3)Oc3cc2cc(c3O)Oc2ccc(cc2Cl)[C@H]1O`, the Ka in test [8] is 4.8 10^3/M; in test [7] it was 5.2 10^3/M.
As for `CC(=O)OCC1=C(C(=O)O)N2C(=O)[C@@H](NC(=O)CCC[C@@H](N)C(=O)O)[C@H]2SC1` [CEPHALOSPORIN C], the MIC in test [3] is < 0.5 µg/mL; in test [5], 1 µg/mL.
In test [5], `CN[C@H](CC(C)C)C(=O)N[C@H]1C(=O)N[C@@H](CC(N)=O)C(=O)N[C@H]2C(=O)N[C@H]3C(=O)N[C@H](C(=O)N[C@H](C(=O)NCCCCCCNC(=O)[C@H]4NC(=O)[C@H]5NC(=O)[C@H](NC(=O)[C@@H]6NC(=O)[C@H](CC(N)=O)NC(=O)[C@H](NC(=O)[C@@H](CC(C)C)NC)[C@H](O)c7ccc(c(Cl)c7)Oc7cc6cc(c7O[C@@H]6O[C@H](CO)[C@@H](O)[C@H](O)[C@H]6O[C@H]6C[C@](C)(N)[C@H](O)[C@H](C)O6)Oc6ccc(cc6Cl)[C@H]5O)c5ccc(O)c(c5)-c5c(O)cc(O)cc54)c4cc(O)cc(O)c4-c4cc3ccc4O)[C@H](O)c3ccc(c(Cl)c3)Oc3cc2cc(c3O[C@@H]2O[C@H](CO)[C@@H](O)[C@H](O)[C@H]2O[C@H]2C[C@](C)(N)[C@H](O)[C@H](C)O2)Oc2ccc(cc2Cl)[C@H]1O` showed an MIC of 32 µM.

The record behind these values is ChEMBL document CHEMBL5230081, “Battle against Vancomycin-Resistant Bacteria: Recent Developments in Chemical Strategies” (J Med Chem, 2019).
